Laboratory results taken from EP4643657A1, “COMPOSITIONS CONTAINING SHORT-CHAIN FATTY ACID, METHODS OF USE, AND METHODS OF MAKING THEREOF” (Velocity Life Sciences, LLC, priority 2024, dated 2025).

Experiments:
[1] = given intravenously; plasma; cited from earlier work
[2] = Visual-analog scales of affect, randomized three-arm crossover trial (Example 5); format: in vivo, human; set-up: Mood AUC / Alertness AUC / Well-being AUC / Calm and Relaxed AUC / Stressed and Anxious AUC: unit not given here; details: Mean±SD
Protocol: Experimental Design: This was a randomized, three-arm, crossover trial in which participants visited the laboratory on four occasions (one screening visit and three testing visits). […] Written informed consent was obtained from all subjects prior to enrollment. The study was retrospectively registered on clinicaltrials.gov (#NCT06700785). This study was conducted at The Center for Applied Health Sciences, a contract research organization located in Northeast Ohio. […] VAS assessed subjective ratings of state of well-being, calm and relaxed, stressed and anxious, mood, motivation to perform tasks, level of alertness, and ability to concentrate and were anchored with "Worst possible", "Lowest possible", "Strongly Disagree", or "Best Possible", "Highest Possible", "Strongly Agree". […] Statistical Analyses: Normality was assessed using Q-Q plot and Shapiro-Wilks test. Severe non-normal measures were normalized using log (In) transformation. Serum butyrate concentrations, subjective ratings of affect, and vitals over time between treatments were analyzed using a mixed effects factorial ANOVA . Tukey post hocs were applied if significant main effects/interactions were observed. […] Effect sizes are reported as Cohen's d (with 0.2 considered a small effect, 0.5 considered a medium effect, and 0.8 considered a large effect). All analyses were conducted in GraphPad Prism v.10.4.0.

[3] = male, human, in vivo
[4] = 0 min (prior to ingestion), 100-mm VAS
[5] = 0-210 min, 786 mg of butyric acid oral
[6] = 45 min post ingestion, 786 mg of butyric acid oral, 100-mm VAS
[7] = 90 min post ingestion, 786 mg of butyric acid oral, 100-mm VAS
[8] = 150 min post ingestion, 786 mg of butyric acid oral, 100-mm VAS
[9] = 210 min post ingestion, 786 mg of butyric acid oral, 100-mm VAS

CCCC(=O)O [Butyric Acid, butanoic acid]
half-life [1]: about six

CCCC(=O)OCC(COC(=O)CCC)OC(=O)CCC [TB, propane-1,2,3-triyl tributanoate]
Ability to concentrate (VAS) [2, 4]: 6.9 ± 1.7 cm | Alertness [2, 4]: 6.7 ± 1.7 | Calm and Relaxed [2, 4]: 7.5 ± 1.2 cm | Mood [2, 4]: 7.1 ± 1.5^# cm | Stressed and Anxious [2, 4]: 2.7 ± 2.0 cm | Well-being [2, 4]: 7.4 ± 1.2 cm | Alertness AUC [2, 5]: 1481 ± 293 | Calm and Relaxed AUC [2, 5]: 1571 ± 245 | Concentration AUC [2, 5]: 1504 ± 315 | Mood AUC [2, 5]: 1600 ± 214 | Well-being AUC [2, 5]: 1588 ± 234 | Stressed and Anxious AUC ([2]; 0-210 min, 786 mg of butyric acid oral, raw untransformed data): 518 ± 408 | Ability to concentrate (VAS) [2, 6]: 7.1 ± 1.6 cm | Alertness [2, 6]: 7.0 ± 1.5 | Calm and Relaxed [2, 6]: 7.2 ± 1.4 cm | Mood [2, 6]: 7.5 ± 1.1^# cm | Stressed and Anxious [2, 6]: 2.7 ± 2.2 cm | Well-being [2, 6]: 7.6 ± 1.1 cm | Ability to concentrate (VAS) [2, 7]: 6.9 ± 1.6 cm | Alertness [2, 7]: 6.9 ± 1.4 | Calm and Relaxed [2, 7]: 7.5 ± 1.3 cm | Mood [2, 7]: 7.6 ± 1.0^# cm | Stressed and Anxious [2, 7]: 2.4 ± 1.9 cm | Well-being [2, 7]: 7.6 ± 1.2 cm | Alertness [2, 8]: 7.1 ± 1.6^# | Calm and Relaxed [2, 8]: 7.5 ± 1.2 cm | Concentration [2, 8]: 7.4 ± 1.4^α cm | Mood [2, 8]: 7.7 ± 1.0 cm | Stressed and Anxious [2, 8]: 2.4 ± 2.0 cm | Well-being [2, 8]: 7.5 ± 1.1 cm | Ability to concentrate (VAS) [2, 9]: 7.5 ± 1.6 cm | Alertness [2, 9]: 7.5 ± 1.5 | Calm and Relaxed [2, 9]: 7.9 ± 1.2 cm | Mood [2, 9]: 8.0 ± 1.0 cm | Stressed and Anxious [2, 9]: 2.3 ± 2.2 cm | Well-being [2, 9]: 7.8 ± 1.2 cm | Perform Tasks ([2]; motivation to perform tasks, 0 min (prior to ingestion), 100-mm VAS): 6.9 ± 1.6 cm | Perform Tasks AUC ([2]; motivation to perform tasks, 0-210 min, 786 mg of butyric acid oral): 1505 ± 331 | Perform Tasks ([2]; motivation to perform tasks, 45 min post ingestion, 786 mg of butyric acid oral, 100-mm VAS): 7.2 ± 1.3 cm | Perform Tasks ([2]; motivation to perform tasks, 90 min post ingestion, 786 mg of butyric acid oral, 100-mm VAS): 7.1 ± 1.7 cm | Perform Tasks ([2]; motivation to perform tasks, 150 min post ingestion, 786 mg of butyric acid oral, 100-mm VAS): 7.2 ± 1.8 cm | Perform Tasks ([2]; motivation to perform tasks, 210 min post ingestion, 786 mg of butyric acid oral, 100-mm VAS): 7.3 ± 1.9 cm | Serum Butyrate ([3]; 0 min): 0.41 ± 0.71 µg/mL | Serum Butyrate AUC0-210 ([3]; po, 786 mg): 108 ± 190 | Serum Butyrate Cmax ([3]; po, 786 mg): 910 ± 1650 ng/mL
